According to paper PMC7814043, “Pan RAS-binding compounds selected from a chemical library by inhibiting interaction between RAS and a reduced affinity intracellular antibody” (Scientific Reports, 2021):

Experiments:
[1] = target: T1, HRAS^G12V-GTP / scFv RASdm interaction (Homo sapiens, UniProt P01112, G12V); test: AlphaScreen of interaction between GST-HRAS^G12V-GTPγS and His-tagged scFv RASdm; type: biochemical; conditions: dose-response Alpha assay
T1 construct: made in house; host or cells: E. coli C41(DE3)
T1 sequence (P01112 whole entry G12V): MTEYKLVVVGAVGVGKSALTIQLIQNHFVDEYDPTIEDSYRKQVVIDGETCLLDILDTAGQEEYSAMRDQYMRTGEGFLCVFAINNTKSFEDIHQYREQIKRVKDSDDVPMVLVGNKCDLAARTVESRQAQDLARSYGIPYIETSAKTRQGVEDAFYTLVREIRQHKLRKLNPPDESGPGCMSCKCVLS
From the text: An AlphaScreen assay was established with GST-HRAS^G12V-GTP bound to GST-beads and HIS-tagged scFv RASdm bound to nickel-beads. The Alpha assay comprised interaction of anti-RAS and HRAS proteins and signal from the acceptor beads generated after excitation of the donor nickel-beads (depicted in Supplementary Fig. 3A). […] The interactions were optimized for protein concentrations linked to the donor and acceptor beads (Supplementary Fig. 3C,D). The interaction of HRAS^G12V-GTP with the dematured anti-RAS scFv was robust (Supplementary Fig. 3D) yielding Z factors of 0.74–0.85 being considered suitable for high throughput screen. […]
The AlphaScreen assay (Perkin Elmer) was performed in a 8 μl final volume in 1536-well white microtiter plates (Greiner). […] Exposure of the reaction to direct light was avoided and the emission of light from the acceptor beads was measured in the EnVision plate reader (Perkin Elmer) and analyzed using the EnVision manager software. […]
Panel A: AlphaLISA glutathione (GSH) acceptor beads were used to capture GST-HRAS loaded with GTPγS (Ag). […] Following incubation, nickel (Ni) chelate donor AlphaLISA beads were added and the chemiluminescence signal detected on an PE Envision plate reader. […]

[2] = target: T2, non-mutated anti-RAS scFv / HRAS^G12V interaction (Homo sapiens, UniProt P01112, G12V); test: Alpha assay of non-mutated anti-RAS scFv with HRAS^G12V (identical protocol, unpublished data); type: biochemical
T2 construct: made in house; host or cells: E. coli C41(DE3)
T2 sequence (P01112 whole entry G12V): as above
From the text: We have used the RAS protein as a target for this method as this was previously regarded as undruggable[9]–[11]. We provide further evidence of RAS druggability and that antibody binding sites can be employed to select small molecules for drug discovery as starting chemical matter for medicinal chemistry drug development campaigns. Compound A (Fig. 3A) is a heterocycle that would require crystal soaking to facilitate structure-based drug design to place this on a formal drug development programme. […] Further, the low Kd in SPR (Fig. 4), lack of inhibitory effect in Alpha controls (Fig. 3) argue against chemical reactivity as the reason for the Alpha assay inhibition. […] The low binding strength of these initial library hits, in turn resulting from the small size of the chemical library used, would preclude meaningful cell-assays at this stage.

HRAS-GPPNHP = HRAS-GPPNHP (Homo sapiens, UniProt P01112); test: SPR of compound on biotinylated RAS isoform (streptavidin chip); type: binding
HRAS-GPPNHP, sequence (P01112 1-166): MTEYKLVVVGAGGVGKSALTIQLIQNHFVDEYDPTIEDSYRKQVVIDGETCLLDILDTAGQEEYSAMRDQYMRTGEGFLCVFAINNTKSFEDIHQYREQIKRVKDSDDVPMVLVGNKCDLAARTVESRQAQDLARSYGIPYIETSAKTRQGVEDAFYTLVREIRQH

NRAS-GPPNHP = NRAS-GPPNHP (Homo sapiens, UniProt P01111); test: as above; type: binding
NRAS-GPPNHP, sequence (P01111 1-166): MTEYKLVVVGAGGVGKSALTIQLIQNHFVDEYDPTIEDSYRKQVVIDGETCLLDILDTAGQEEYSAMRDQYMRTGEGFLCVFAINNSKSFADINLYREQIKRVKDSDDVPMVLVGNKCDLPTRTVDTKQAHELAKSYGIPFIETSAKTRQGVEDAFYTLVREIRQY

dopamine D1 receptor = conditions: cited from earlier work
[3] = test system: KRAS, HRAS and NRAS-GTP proteins; test: SPR over the three RAS isoforms (average / overall)
Description: Accordingly, we used SPR to determine direct RAS-binding and because the anti-RAS intracellular antibody interacts with the three isoforms of activated RAS[3], we assessed if the compounds also show a pan-RAS binding.
The protein extracts were loaded with GPPNHP (a non-hydrolysable GTP analogue) as described[19] and biotinylated by incubation with BirA overnight at 4 °C. […] SPR experiments were performed using BIAcore T100 (GE Healthcare). […] The chip was prepared with 3 × 30 s injections of 1 M NaCl/50 mM NaOH at 10 µL/min flow rate, before biotinylated RAS proteins were injected at 25 µg/mL with 10 µL/min flow rate until 4000–5000 RU protein was captured.

KRAS^G12V-GPPNHP = KRAS^G12V-GPPNHP (Homo sapiens, UniProt P01116, G12V); test: SPR of compound on biotinylated RAS isoform (streptavidin chip); type: binding

| Structure (SMILES) | IC50 [1] [µM] | inhibition of interaction between non-mutated anti-RAS scFv and HRAS^G12V [2] | Rmax (HRAS-GPPNHP; Figure 4E) [RU] | Kd (HRAS-GPPNHP; HRAS) [µM] | Rmax (NRAS-GPPNHP; Figure 4F) [RU] | Kd (NRAS-GPPNHP; NRAS) [µM] | dopamine D1 receptor activity (dopamine D1 receptor) | response in SPR analysis ([3]; KRAS, HRAS and NRAS proteins) | Kd ([3]; read-out: average Kd, average over KRAS, HRAS and NRAS) [µM] | Rmax (KRAS^G12V-GPPNHP; Figure 4D) [RU] | Kd (KRAS^G12V-GPPNHP; KRAS) [µM] |
| --- | --- | --- | --- | --- | --- | --- | --- | --- | --- | --- | --- |
| CCCn1c(=O)c2[nH]c(C3CCCC3)nc2n(CCCOC(=O)c2ccc(S(=O)(=O)F)cc2)c1=O [Compound A, 8-Cyclopentyl-3-(3-((4-(fluorosulfonyl)benzoyl)oxy)propyl)-1-propylxanthine] | 2 | no inhibition |  |  |  |  |  |  |  |  |  |
| CN1Cc2ccccc2C2c3cccc4[nH]cc(c34)CC21 (stereo not drawn) [compound B, 4,6,6a,7,8,12b-hexahydro-7-methylindolo(4,3-ab)-phenanthridine] | 6 |  | 3.5 | 30 | 6.8 | 35 | weak dopamine D1 receptor agonist | low response | 37 | 6.7 | 47 |
